Data taken from patent EP4707280A1, “1,4-CINEOLE DERIVATIVE AND INTERMEDIATE THEREOF, HERBICIDE CONTAINING SAID DERIVATIVE AS ACTIVE INGREDIENT, METHOD FOR USING HERBICIDE, AND METHOD FOR PREPARING AGROCHEMICAL COMPOSITION” (HOKKO CHEMICAL INDUSTRY CO., LTD., priority 2023, dated 2024).

Columns and labels:
Assay type in all cases: in vivo
[1] = test system: Echinochloa crus-galli var. formosensis; assay: Test Example 1: herbicidal effect test by soil application in paddy rice; details: Echinochloa crus-galli, soil, 336 h; 120 g active ingredient per 10 ares; applied immediately after sowing, flooded pots; 14 days after application; read-out: weed inhibition rate
How it was run: (§1)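 Pre-emergence paddy soil application, 120 g a.i./10 a, emulsifiable concentrate diluted in water, applied by dropper right after sowing. Seeds (30/species) sown 0–1 cm in puddled, fertilized soil; flooded ~3 cm; glass greenhouse.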

[2] = test system: Scirpus juncoides; assay: as above; details: Schoenoplectiella juncoides, soil, 336 h; 120 g active ingredient per 10 ares; applied immediately after sowing, flooded pots; 14 days after application; read-out: weed inhibition rate
How it was run: as §1

[3] = test system: Monochoria vaginalis; assay: as above; details: Pontederia vaginalis, soil, 336 h; 120 g active ingredient per 10 ares; applied immediately after sowing, flooded pots; 14 days after application; read-out: weed inhibition rate
How it was run: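 Inhibition rate (%) read 14 days after treatment, duplicate pots. Water-diluted emulsifiable concentrate was applied by dropper at 120 g active ingredient/10 ares right after sowing. Seeds (30 per species, 0–1 cm deep) went into puddled paddy soil kept flooded at about 3 cm in a greenhouse.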

[4] = test system: Echinochloa crus-galli var. formosensis; assay: Test Example 2: herbicidal effect test by application during growth period of paddy rice; details: Echinochloa crus-galli; 120 g per 10 ares; applied seven days after sowing, flooded pots; 14 days after application; read-out: weed inhibition rate
How it was run: (§2)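 Weeds sown into puddled, flooded paddy soil received a post-emergence water application of emulsifiable concentrate at 120 g active ingredient per 10 ares, seven days after sowing. Herbicidal effect was rated 14 days later as inhibition (%).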

[5] = test system: Monochoria vaginalis; assay: as above; details: Pontederia vaginalis; 120 g per 10 ares; applied seven days after sowing, flooded pots; 14 days after application; read-out: weed inhibition rate
How it was run: as §2

[6] = test system: Scirpus juncoides; assay: as above; details: Schoenoplectiella juncoides; 120 g per 10 ares; applied seven days after sowing, flooded pots; 14 days after application; read-out: weed inhibition rate
How it was run: as §2

[7] = test system: Digitaria ciliaris; assay: Test Example 4: herbicidal effect test by stem and leaf treatment in upland field; details: Digitaria ciliaris; 120 g per 10 ares; sprayed seven days after sowing, upland soil; 14 days after application; read-out: weed inhibition rate
[8] = test system: Monochoria vaginalis; assay: Test Example 5: herbicidal effect test by soil application in paddy rice (low dose); details: Pontederia vaginalis, 336 h, 7.5 g per 10 ares, applied immediately after sowing, flooded pots, 14 days after application, read-out: weed inhibition rate
How it was run: (§3)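 Pots of puddled, fertilized paddy soil receive 30 seeds per species at 0–1 cm depth and are flooded to about 3 cm. The diluted emulsifiable concentrate is then dropped onto the water, delivering 7.5 g active ingredient per 10 ares. Greenhouse grown; herbicidal effect scored 14 days later, two replicates.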

[9] = test system: Scirpus juncoides; assay: as above; details: Schoenoplectiella juncoides, 336 h, 7.5 g per 10 ares, applied immediately after sowing, flooded pots, 14 days after application, read-out: weed inhibition rate
How it was run: as §3

[10] = test system: Digitaria ciliaris; assay: Test Example 8: herbicidal effect test by stem and leaf treatment in upland field (low dose); details: Digitaria ciliaris; 7.5 g per 10 ares; sprayed seven days after sowing, upland soil; 14 days after application; read-out: weed inhibition rate
[11] = test system: Echinochloa crus-galli; assay: as above; details: Echinochloa crus-galli; 7.5 g per 10 ares; sprayed seven days after sowing, upland soil; 14 days after application; read-out: weed inhibition rate

Cc1cccc(F)c1CO[C@@H]1C[C@]2(C(C)C)O[C@@]1(C)CC2=O [2-353, (1R,4S,5R)-5-((2-fluoro-6-methylbenzyl)oxy)-1-isopropyl-4-methyl-7-oxabicyclo[2.2.1]heptan-2-one]
≥ 80%: pest or weed control at 1200 g/ha [1] | pest or weed control at 1200 g/ha [2] | pest or weed control at 1200 g/ha [3] | inhibition at 1200 g/ha [4] | inhibition at 1200 g/ha [5] | inhibition at 1200 g/ha [6] | inhibition at 1200 g/ha [7] | inhibition at 75 g/ha [8] | inhibition at 75 g/ha [9] | inhibition at 75 g/ha [10] | inhibition at 75 g/ha [11]

CCO[C@H]1C[C@]2(C)O[C@@]1(C(C)C)C[C@H]2OCc1ccccc1F [1-183, (1S,2R,4R,5S)-5-ethoxy-2-[(2-fluorophenyl)methoxy]-1-methyl-4-isopropyl-7-oxabicyclo[2.2.1]heptane]
≥ 80%: pest or weed control at 1200 g/ha [1] | pest or weed control at 1200 g/ha [2] | pest or weed control at 1200 g/ha [3] | inhibition at 1200 g/ha [4] | inhibition at 1200 g/ha [5] | inhibition at 1200 g/ha [6] | inhibition at 1200 g/ha [7] | inhibition at 75 g/ha [8] | inhibition at 75 g/ha [9] | inhibition at 75 g/ha [10] | inhibition at 75 g/ha [11]

CC(C)[C@]12C[C@@H](OCc3ccccc3F)[C@](C)(CC1=O)O2 [2-9, (1R,4S,5R)-5-((2-fluorobenzyl)oxy)-1-isopropyl-4-methyl-7-oxabicyclo[2.2.1]heptan-2-one]
≥ 80%: pest or weed control at 1200 g/ha [1] | pest or weed control at 1200 g/ha [2] | pest or weed control at 1200 g/ha [3] | inhibition at 1200 g/ha [4] | inhibition at 1200 g/ha [5] | inhibition at 1200 g/ha [6] | inhibition at 1200 g/ha [7] | inhibition at 75 g/ha [8] | inhibition at 75 g/ha [9] | inhibition at 75 g/ha [10] | inhibition at 75 g/ha [11]

CC(C)[C@]12C[C@@H](OCc3ccccc3F)[C@](C)(C[C@@H]1OCC1CC1)O2 [1-1603, (1S,2R,4R,5S)-5-(cyclopropylmethoxy)-2-[(2-fluorophenyl)methoxy]-1-methyl-4-isopropyl-7-oxabicyclo[2.2.1]heptane]
≥ 80%: pest or weed control at 1200 g/ha [1] | pest or weed control at 1200 g/ha [2] | pest or weed control at 1200 g/ha [3] | inhibition at 1200 g/ha [4] | inhibition at 1200 g/ha [5] | inhibition at 1200 g/ha [6] | inhibition at 1200 g/ha [7] | inhibition at 75 g/ha [8] | inhibition at 75 g/ha [9] | inhibition at 75 g/ha [10] | inhibition at 75 g/ha [11]

CC(C)[C@]12C[C@@H](OCc3c(F)cccc3Cl)[C@](C)(CC1=O)O2 [2-28, (1R,4S,5R)-5-((2-chloro-6-fluorobenzyl)oxy)-1-isopropyl-4-methyl-7-oxabicyclo[2.2.1]heptan-2-one]
≥ 80%: pest or weed control at 1200 g/ha [1] | pest or weed control at 1200 g/ha [2] | pest or weed control at 1200 g/ha [3] | inhibition at 1200 g/ha [4] | inhibition at 1200 g/ha [5] | inhibition at 1200 g/ha [6] | inhibition at 1200 g/ha [7] | inhibition at 75 g/ha [8] | inhibition at 75 g/ha [9] | inhibition at 75 g/ha [10] | inhibition at 75 g/ha [11]

CC(C)[C@]12C[C@@H](OCc3ccccc3F)[C@](C)(C[C@@H]1F)O2 [1-5, (1R,2S,4S,5R)-2-fluoro-5-((2-fluorobenzyl)oxy)-1-isopropyl-4-methyl-7-oxabicyclo[2.2.1]heptane]
≥ 80%: pest or weed control at 1200 g/ha [1] | pest or weed control at 1200 g/ha [2] | pest or weed control at 1200 g/ha [3] | inhibition at 1200 g/ha [4] | inhibition at 1200 g/ha [5] | inhibition at 1200 g/ha [6] | inhibition at 1200 g/ha [7] | inhibition at 75 g/ha [8] | inhibition at 75 g/ha [9] | inhibition at 75 g/ha [10] | inhibition at 75 g/ha [11]

C=CCO[C@@H]1C[C@]2(C)O[C@@]1(C(C)C)C[C@H]2OCc1ccccc1F [1-930, (1S,2R,4R,5R)-2-[(2-fluorophenyl)methoxy]-1-methyl-4-isopropyl-5-prop-2-enoxy-7-oxabicyclo[2.2.1]heptane]
≥ 80%: pest or weed control at 1200 g/ha [1] | pest or weed control at 1200 g/ha [2] | pest or weed control at 1200 g/ha [3] | inhibition at 1200 g/ha [4] | inhibition at 1200 g/ha [5] | inhibition at 1200 g/ha [6] | inhibition at 1200 g/ha [7] | inhibition at 75 g/ha [8] | inhibition at 75 g/ha [9] | inhibition at 75 g/ha [10] | inhibition at 75 g/ha [11]

CC(C)[C@]12C[C@@H](OCc3ccc(F)cc3)[C@](C)(C[C@@H]1Br)O2 [1-691, (1S,2R,4R,5S)-5-bromo-2-[(4-fluorophenyl)methoxy]-1-methyl-4-isopropyl-7-oxabicyclo[2.2.1]heptane]
≥ 80%: pest or weed control at 1200 g/ha [1] | pest or weed control at 1200 g/ha [2] | pest or weed control at 1200 g/ha [3] | inhibition at 1200 g/ha [4] | inhibition at 1200 g/ha [5] | inhibition at 1200 g/ha [6] | inhibition at 1200 g/ha [7] | inhibition at 75 g/ha [8] | inhibition at 75 g/ha [9] | inhibition at 75 g/ha [10] | inhibition at 75 g/ha [11]

CC(C)[C@]12C[C@@H](OCc3c(F)cccc3F)[C@](C)(C[C@@H]1Br)O2 [1-21, (1S,2R,4R,5S)-5-bromo-2-[(2,6-difluorophenyl)methoxy]-1-methyl-4-isopropyl-7-oxabicyclo[2.2.1]heptane]
≥ 80%: pest or weed control at 1200 g/ha [1] | pest or weed control at 1200 g/ha [2] | pest or weed control at 1200 g/ha [3] | inhibition at 1200 g/ha [4] | inhibition at 1200 g/ha [5] | inhibition at 1200 g/ha [6] | inhibition at 1200 g/ha [7] | inhibition at 75 g/ha [8] | inhibition at 75 g/ha [9] | inhibition at 75 g/ha [10] | inhibition at 75 g/ha [11]

C#CCO[C@@H]1C[C@]2(C)O[C@@]1(C(C)C)C[C@H]2OCc1ccccc1F [1-931, (1S,2R,4R,5R)-2-[(2-fluorophenyl)methoxy]-1-methyl-4-isopropyl-5-prop-2-ynoxy-7-oxabicyclo[2.2.1]heptane]
≥ 80%: pest or weed control at 1200 g/ha [1] | pest or weed control at 1200 g/ha [2] | pest or weed control at 1200 g/ha [3] | inhibition at 1200 g/ha [4] | inhibition at 1200 g/ha [5] | inhibition at 1200 g/ha [6] | inhibition at 1200 g/ha [7] | inhibition at 75 g/ha [8] | inhibition at 75 g/ha [9] | inhibition at 75 g/ha [10] | inhibition at 75 g/ha [11]

Cc1ccccc1CO[C@@H]1C[C@]2(C(C)C)O[C@@]1(C)CC2=O [2-3, (1R,4S,5R)-1-isopropyl-4-methyl-5-((2-methylbenzyl)oxy)-7-oxabicyclo[2.2.1]heptan-2-one]
≥ 80%: pest or weed control at 1200 g/ha [1] | pest or weed control at 1200 g/ha [2] | pest or weed control at 1200 g/ha [3] | inhibition at 1200 g/ha [4] | inhibition at 1200 g/ha [5] | inhibition at 1200 g/ha [6] | inhibition at 1200 g/ha [7] | inhibition at 75 g/ha [8] | inhibition at 75 g/ha [9] | inhibition at 75 g/ha [10] | inhibition at 75 g/ha [11]

CO[C@H]1C[C@]2(C)O[C@@]1(C(C)C)C[C@H]2OCc1ccccc1F [1-156, (1S,2R,4R,5S)-2-((2-fluorobenzyl)oxy)-4-isopropyl-5-methoxy-1-methyl-7-oxabicyclo[2.2.1]heptane]
≥ 80%: pest or weed control at 1200 g/ha [1] | pest or weed control at 1200 g/ha [2] | pest or weed control at 1200 g/ha [3] | inhibition at 1200 g/ha [4] | inhibition at 1200 g/ha [5] | inhibition at 1200 g/ha [6] | inhibition at 1200 g/ha [7] | inhibition at 75 g/ha [8] | inhibition at 75 g/ha [9] | inhibition at 75 g/ha [10] | inhibition at 75 g/ha [11]
